Tests used:
[1] = Molar enthalpy of transition or fusion; details: Crystal; DSC
[2] = for Normal melting temperature: DTA

O=C(O)c1c(O)cccc1O [2,6-dihydroxybenzoic acid]
Details | Molar enthalpy of transition or fusion [kcal/mol]
[1] | 5.98

[2]
Details | vapor or sublimation pressure [kPa]
346 K, Crystal, Torsion effusion method | 9.9e-05
347 K, Crystal, Torsion effusion method | 0.000113
351.5 K, Crystal, Torsion effusion method | 0.00017
353.3 K, Crystal, Torsion effusion method | 0.000216
354 K, Crystal, Torsion effusion method | 0.000223
355 K, Crystal, Torsion effusion method | 0.000248
357 K, Crystal, Torsion effusion method | 0.000307
358 K, Crystal, Torsion effusion method | 0.000341
360.5 K, Crystal, Torsion effusion method | 0.000443
361 K, Crystal, Torsion effusion method | 0.000467
361.5 K, Crystal, Torsion effusion method | 0.000492
363 K, Crystal, Torsion effusion method | 0.000574
363.5 K, Crystal, Torsion effusion method | 0.000604
365 K, Crystal, Torsion effusion method | 0.000704
366 K, Crystal, Torsion effusion method | 0.000779
367 K, Crystal, Torsion effusion method | 0.000851
367.5 K, Crystal, Torsion effusion method | 0.0009
369 K, Crystal, Torsion effusion method | 0.001031
454.2 K, Liquid, Non-isothermal TG | 0.643
454.7 K, Liquid, Non-isothermal TG | 0.681
455.7 K, Liquid, Non-isothermal TG | 0.722
456.7 K, Liquid, Non-isothermal TG | 0.754
457.7 K, Liquid, Non-isothermal TG | 0.804
458.7 K, Liquid, Isothermal TG | 0.809
458.7 K, Liquid, Non-isothermal TG | 0.853
459.1 K, Liquid, Isothermal TG | 0.829
459.2 K, Liquid, Isothermal TG | 0.848
459.7 K, Liquid, Non-isothermal TG | 0.904
459.8 K, Liquid, Isothermal TG | 0.868
460.2 K, Liquid, Isothermal TG | 0.887
460.6 K, Liquid, Isothermal TG | 0.907
460.7 K, Liquid, Isothermal TG | 0.928
460.8 K, Liquid, Non-isothermal TG | 0.954
461 K, Liquid, Isothermal TG | 0.928
461.5 K, Liquid, Isothermal TG | 0.948
461.8 K, Liquid, Non-isothermal TG | 1.006
461.9 K, Liquid, Isothermal TG | 0.968
462 K, Liquid, Isothermal TG | 0.979
462.7 K, Liquid, Isothermal TG | 1
462.7 K, Liquid, Non-isothermal TG | 1.056
463.1 K, Liquid, Isothermal TG | 1.027
463.5 K, Liquid, Isothermal TG | 1.048
463.6 K, Liquid, Isothermal TG | 1.055
463.8 K, Liquid, Non-isothermal TG | 1.077
464.3 K, Liquid, Isothermal TG | 1.087
464.7 K, Liquid, Isothermal TG | 1.108
464.8 K, Liquid, Non-isothermal TG | 1.121
465.1 K, Liquid, Isothermal TG | 1.113
465.2 K, Liquid, Isothermal TG | 1.14
465.8 K, Liquid, Non-isothermal TG | 1.175
465.9 K, Liquid, Isothermal TG | 1.167
466.3 K, Liquid, Isothermal TG | 1.187
466.7 K, Liquid, Isothermal TG | 1.208
466.8 K, Liquid, Isothermal TG | 1.227
466.8 K, Liquid, Non-isothermal TG | 1.22
467.5 K, Liquid, Isothermal TG | 1.248
467.8 K, Liquid, Non-isothermal TG | 1.313
467.9 K, Liquid, Isothermal TG | 1.267
468.3 K, Liquid, Isothermal TG | 1.288
468.4 K, Liquid, Isothermal TG | 1.307
468.8 K, Liquid, Non-isothermal TG | 1.364
469.1 K, Liquid, Isothermal TG | 1.328
469.5 K, Liquid, Isothermal TG | 1.348
469.8 K, Liquid, Non-isothermal TG | 1.412
470 K, Liquid, Isothermal TG | 1.381
470.1 K, Liquid, Isothermal TG | 1.389
470.8 K, Liquid, Isothermal TG | 1.434
470.8 K, Liquid, Non-isothermal TG | 1.464
471.2 K, Liquid, Isothermal TG | 1.442
471.6 K, Liquid, Isothermal TG | 1.472
471.7 K, Liquid, Isothermal TG | 1.509
471.7 K, Liquid, Non-isothermal TG | 1.51
472.5 K, Liquid, Isothermal TG | 1.546
472.7 K, Liquid, Non-isothermal TG | 1.557
473.7 K, Liquid, Non-isothermal TG | 1.644
474.8 K, Liquid, Non-isothermal TG | 1.761
475.7 K, Liquid, Non-isothermal TG | 1.829
476.7 K, Liquid, Non-isothermal TG | 1.847

Details | Normal melting temperature [°C]
[2], Crystal | 170.6

O=C(O)c1ccc(O)cc1O [2,4-dihydroxybenzoic acid]
Details | Molar enthalpy of transition or fusion [kcal/mol]
[1] | 7.41

[2]
Details | vapor or sublimation pressure [kPa]
364.2 K, Crystal, Torsion effusion method | 6.2e-05
365.3 K, Crystal, Torsion effusion method | 7e-05
366.3 K, Crystal, Torsion effusion method | 8e-05
367.1 K, Crystal, Torsion effusion method | 8.9e-05
368.3 K, Crystal, Torsion effusion method | 0.000101
369.6 K, Crystal, Torsion effusion method | 0.000116
370.8 K, Crystal, Torsion effusion method | 0.000131
372.5 K, Crystal, Torsion effusion method | 0.000155
374.2 K, Crystal, Torsion effusion method | 0.000187
375.7 K, Crystal, Torsion effusion method | 0.000218
377.1 K, Crystal, Torsion effusion method | 0.000255
379 K, Crystal, Torsion effusion method | 0.000312
380.3 K, Crystal, Torsion effusion method | 0.000353
382.5 K, Crystal, Torsion effusion method | 0.000391
383 K, Crystal, Torsion effusion method | 0.000423
384.1 K, Crystal, Torsion effusion method | 0.000512
385.2 K, Crystal, Torsion effusion method | 0.000576
387.3 K, Crystal, Torsion effusion method | 0.000655
388.1 K, Crystal, Torsion effusion method | 0.000735
389.2 K, Crystal, Torsion effusion method | 0.000821
390.1 K, Crystal, Torsion effusion method | 0.000912
511.2 K, Liquid, Non-isothermal TG | 2.825
511.7 K, Liquid, Non-isothermal TG | 2.896
512.2 K, Liquid, Non-isothermal TG | 3.022
512.7 K, Liquid, Non-isothermal TG | 3.073
513.3 K, Liquid, Isothermal TG | 3.108
513.8 K, Liquid, Isothermal TG | 3.111
514.3 K, Liquid, Isothermal TG | 3.167
514.8 K, Liquid, Non-isothermal TG | 3.343
515.3 K, Liquid, Non-isothermal TG | 3.35
515.8 K, Liquid, Non-isothermal TG | 3.458
516.4 K, Liquid, Non-isothermal TG | 3.553
516.9 K, Liquid, Isothermal TG | 3.606
517.4 K, Liquid, Isothermal TG | 3.622
517.9 K, Liquid, Isothermal TG | 3.638
518.4 K, Liquid, Isothermal TG | 3.711
518.9 K, Liquid, Non-isothermal TG | 3.901
519.4 K, Liquid, Non-isothermal TG | 3.97
519.9 K, Liquid, Non-isothermal TG | 4.016
520.4 K, Liquid, Non-isothermal TG | 4.161
520.9 K, Liquid, Isothermal TG | 4.222
521.4 K, Liquid, Isothermal TG | 4.207
521.9 K, Liquid, Isothermal TG | 4.223
522.4 K, Liquid, Isothermal TG | 4.342
522.9 K, Liquid, Non-isothermal TG | 4.463
523.4 K, Liquid, Non-isothermal TG | 4.543
523.9 K, Liquid, Non-isothermal TG | 4.649
524.4 K, Liquid, Non-isothermal TG | 4.833
525.4 K, Liquid, Isothermal TG | 4.975
526.4 K, Liquid, Isothermal TG | 5.059
526.9 K, Liquid, Isothermal TG | 5.093
527.4 K, Liquid, Isothermal TG | 5.122
528.4 K, Liquid, Non-isothermal TG | 5.41
528.9 K, Liquid, Non-isothermal TG | 5.477
529.4 K, Liquid, Non-isothermal TG | 5.483
529.9 K, Liquid, Non-isothermal TG | 5.556
530.4 K, Liquid, Isothermal TG | 5.598
530.9 K, Liquid, Isothermal TG | 5.667
531.5 K, Liquid, Isothermal TG | 5.675
532 K, Liquid, Isothermal TG | 5.825
532.5 K, Liquid, Non-isothermal TG | 5.928
533 K, Liquid, Non-isothermal TG | 6.061
533.5 K, Liquid, Isothermal TG | 6.226
534 K, Liquid, Isothermal TG | 6.322

Details | Normal melting temperature [°C]
[2], Crystal | 228.6

Source: the NIST ThermoML archive (doi:10.1016/j.tca.2011.01.001)
